Data as given in publication PMC10108347, “Heterobifunctional Ligase Recruiters Enable pan-Degradation of Inhibitor of Apoptosis Proteins” (Journal of Medicinal Chemistry, 2023).
Like-named read-outs stand apart in the source and are kept apart here. *1 amine or outer side, *2 acyl side, *3 side chain or, on linkers, in order; H or OH if unused. Where a SMILES comes first, the peptide text is derived from it. Bridges are numbered along the chain shown (N, C = ends). Roman numbers before positions name the chains, in order. [ ]: non-standard residue; d: D form. Hexamethylenediamine = C(CCCN[*:2])CCN[*:1]; dDip = N[C@@H](C(=O)O)C(c1ccccc1)c1ccccc1; Chg = N[C@H](C(=O)O)C1CCCCC1; dNMeA = CN[C@H](C)C(=O)O

Assays:
VHL30 = VHL30 (Homo sapiens, UniProt P40337); assay: Immunoblotting (western blot) quantification of VHL30 levels in MM.1S cells; settings: for remaining activity at 0.1 µM: MM1.S, 16 h; for VHL30 degradation (in words): MM.1S cells, western blot
VHL30, sequence (P40337 whole entry): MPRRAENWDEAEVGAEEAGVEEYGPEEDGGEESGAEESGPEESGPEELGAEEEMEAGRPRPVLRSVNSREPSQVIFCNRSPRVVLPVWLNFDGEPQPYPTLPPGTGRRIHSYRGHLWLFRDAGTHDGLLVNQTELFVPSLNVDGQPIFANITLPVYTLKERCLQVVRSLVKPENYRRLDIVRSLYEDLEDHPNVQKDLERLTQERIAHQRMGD
Protocol: (§3) To evaluate the capability of our panel of hetero-PROTACs for E3 ligase degradation, VHL19, VHL30, CRBN, cIAP1, cIAP2, and XIAP levels were quantified by western blot analyses. […] SDS-PAGE was performed, and proteins were then transferred onto PVDF membranes. Blotted membranes were blocked with 5% milk in Tris-buffered saline/Tween20 (TBST). Primary antibodies were diluted in 5% BSA in TBST, and incubations were performed overnight at 4 °C. Secondary HRP-conjugated antibodies diluted in 5% milk were incubated for 1 h at room temperature. Detection of proteins on PVDF was carried out using the WesternBright ECL HRP substrate or the WesternBright Sirius HRP substrate (Advansta, San Jose, USA) and imaged with LAS 4000× (Fujifilm). Membranes were subjected to 10 min incubation with Restore Western Blot Stripping Buffer (Thermo Fisher Scientific, Waltham, USA), followed by TBST washes. After brief re-activation with methanol, the membranes were blocked, and further probing of proteins was carried out.
(§4) Quantification of blots was performed using ImageJ software (National Institutes of Health).

XIAP [1] = biological target: T1, XIAP (Homo sapiens, UniProt P98170); assay: Immunoblotting of XIAP in HG3 wild-type and HG3 VHL-knockout cells; format: cell-based; parameters: endogenous in cells; host or cells: MM.1S; settings: 1 μM, 16 h
T1 sequence (P98170 whole entry): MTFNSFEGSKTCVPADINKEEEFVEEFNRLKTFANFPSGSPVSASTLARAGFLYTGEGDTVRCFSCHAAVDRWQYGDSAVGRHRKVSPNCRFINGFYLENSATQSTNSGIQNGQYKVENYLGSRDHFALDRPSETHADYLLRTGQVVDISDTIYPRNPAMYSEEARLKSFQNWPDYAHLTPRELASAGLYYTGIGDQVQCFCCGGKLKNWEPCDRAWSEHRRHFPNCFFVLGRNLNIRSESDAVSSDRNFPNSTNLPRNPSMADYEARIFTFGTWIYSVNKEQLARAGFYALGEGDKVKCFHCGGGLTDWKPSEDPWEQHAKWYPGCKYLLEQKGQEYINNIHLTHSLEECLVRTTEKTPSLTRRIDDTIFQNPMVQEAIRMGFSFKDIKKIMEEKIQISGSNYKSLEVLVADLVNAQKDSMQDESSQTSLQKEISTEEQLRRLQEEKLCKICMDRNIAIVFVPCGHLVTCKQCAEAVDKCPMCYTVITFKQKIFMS
Protocol: (§1) Next, cellular activities of hetero-PROTACs 2, 4, and 6 were evaluated in chronic lymphocytic leukemia cells (HG3), for which a VHL-knockout cell line was created (Figure 5). […] Thus, VHL knockout confirmed the involvement of E3 ubiquitin ligase CRL2^VHL in the induced degradation of XIAP (and, at least in part, cIAP1) by these IAP-VHL heterobifunctional PROTACs. This provides additional evidence that the degradation of IAPs relies on the formation of a hetero–ternary complex consisting of both ligases and the degraders.
(§2) For generation of lentiviral vectors, HEK293T cells were transfected with constructs along with the packaging and envelope vectors. Viral supernatants were harvested 48 h after transfection and were used to transduce cell lines. MM.1S and HG3 cells were transduced with virus containing pLKO5d.SSF.SpCas9.P2a.BSD, and cells were selected with blasticidin. Selected cells were then transduced with respective sgRNA constructs targeting VHL, cIAP1, cIAP2, XIAP, and negative control luciferase, which were cloned into pLKO5.hU6.sgRNA.dTom. Transduction success was confirmed through FACS analysis 48 h post-transduction with a minimum efficiency of 95% tomato fluorescence.

cIAP2 = cIAP2 (Homo sapiens, UniProt Q13489); assay: Immunoblotting (western blot) quantification of cIAP2 levels in MM.1S cells; settings: 16 h; for remaining activity at 0.1 µM: MM1.S
cIAP2, sequence (Q13489 whole entry): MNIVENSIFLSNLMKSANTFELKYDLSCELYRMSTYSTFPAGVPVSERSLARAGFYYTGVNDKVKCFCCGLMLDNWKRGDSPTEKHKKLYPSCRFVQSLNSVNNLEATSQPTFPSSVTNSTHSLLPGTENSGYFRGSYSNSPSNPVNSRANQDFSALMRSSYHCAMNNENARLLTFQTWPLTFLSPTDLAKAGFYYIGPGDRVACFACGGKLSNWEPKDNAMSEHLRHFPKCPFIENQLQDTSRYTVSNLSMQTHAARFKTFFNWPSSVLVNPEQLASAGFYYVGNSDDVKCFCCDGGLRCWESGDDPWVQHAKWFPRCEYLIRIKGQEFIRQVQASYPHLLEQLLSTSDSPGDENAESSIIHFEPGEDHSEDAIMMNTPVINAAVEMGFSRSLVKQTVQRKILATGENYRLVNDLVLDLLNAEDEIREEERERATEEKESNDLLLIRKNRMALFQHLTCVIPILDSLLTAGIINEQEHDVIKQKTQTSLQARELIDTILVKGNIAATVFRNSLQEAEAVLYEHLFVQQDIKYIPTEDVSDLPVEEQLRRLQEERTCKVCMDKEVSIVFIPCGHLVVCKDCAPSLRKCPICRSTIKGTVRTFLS
Protocol: as §3, §4

cIAP1 [2] = biological target: T2, cIAP1 (Homo sapiens, UniProt Q13490); assay: Immunoblotting (western blot) quantification of cIAP1 levels in MM.1S cells; settings: 16 h; for remaining activity at 0.1 µM: MM1.S
T2 sequence (Q13490 whole entry): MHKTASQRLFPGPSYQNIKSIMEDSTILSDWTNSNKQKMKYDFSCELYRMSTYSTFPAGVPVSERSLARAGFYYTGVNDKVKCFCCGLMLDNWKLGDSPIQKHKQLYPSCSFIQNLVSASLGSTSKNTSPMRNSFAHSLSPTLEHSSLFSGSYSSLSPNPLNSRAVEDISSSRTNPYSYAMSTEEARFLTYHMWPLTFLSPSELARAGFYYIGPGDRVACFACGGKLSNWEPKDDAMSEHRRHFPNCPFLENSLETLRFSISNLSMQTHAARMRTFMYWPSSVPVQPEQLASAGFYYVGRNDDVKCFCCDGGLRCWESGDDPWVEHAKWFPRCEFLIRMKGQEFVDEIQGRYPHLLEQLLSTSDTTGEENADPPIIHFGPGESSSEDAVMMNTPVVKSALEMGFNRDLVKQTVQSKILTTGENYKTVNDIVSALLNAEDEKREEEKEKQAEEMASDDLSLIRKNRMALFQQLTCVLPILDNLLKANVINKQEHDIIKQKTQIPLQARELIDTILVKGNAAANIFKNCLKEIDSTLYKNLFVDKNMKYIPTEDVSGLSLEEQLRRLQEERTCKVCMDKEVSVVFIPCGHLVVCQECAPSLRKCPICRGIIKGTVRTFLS

cIAP1 [3] = biological target: T2, cIAP1; assay: Immunoblotting of cIAP1 in HG3 wild-type and HG3 VHL-knockout cells; format: cell-based; parameters: endogenous in cells; host or cells: MM.1S; settings: 1 μM, 16 h
Protocol: as §1, §2

XIAP [4] = biological target: T1, XIAP; assay: Immunoblotting (western blot) quantification of XIAP levels in MM.1S cells; settings: 16 h; for remaining activity at 0.1 µM: MM1.S
[5] = tested on: IAPs (cIAP1, cIAP2, XIAP); assay: Immunoblotting of IAPs in MM.1S cells, overall degradation profile, time course and washout; format: cell-based; settings: 16 h, western blot, concentration (10 nM to 1 μM)
Protocol: Next, we examined the persistence of IAP degradation in MM.1S cells after a single exposure to 1 μM of 9 and subsequent removal of the compound. […] The reliance on CRL2^VHL was assessed with a neddylation inhibitor MLN4924, which blocks the activity of CRLs (Figure S13A).

VHL19 = VHL19 (Homo sapiens, UniProt P40337); assay: Immunoblotting (western blot) quantification of VHL19 levels in MM.1S cells; settings: 16 h
VHL19, sequence (P40337 54-213): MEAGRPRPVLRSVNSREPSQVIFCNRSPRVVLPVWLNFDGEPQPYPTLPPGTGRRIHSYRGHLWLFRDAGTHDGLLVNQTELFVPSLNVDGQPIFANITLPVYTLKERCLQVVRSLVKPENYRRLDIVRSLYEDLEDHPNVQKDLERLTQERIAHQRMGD
Protocol: as §3, §4

physchem = settings: pH 7.4
Protocol: The system was calibrated by plotting the retention times of six different drugs (atenolol, metoprolol, labetalol, diltiazem, triphenylene, and permethrin) versus their literature-known log D7.4 in a calibration line (R^2 = 0.99). Subsequently, the mean retention times of the analytes were taken to calculate their log D7.4 values with the aid of the calibration line. At least two independent measurements of each analyte were performed.

[6] = read-out: %remaining protein VHL30, MM.1S cells, 16 h treatment at 0.1 μM, normalized to loading control and DMSO
[7] = read-out: %remaining protein cIAP2, MM.1S cells, 16 h treatment at 0.1 μM, normalized to loading control and DMSO
[8] = read-out: %remaining protein cIAP1, MM.1S cells, 16 h treatment at 0.1 μM, normalized to loading control and DMSO
[9] = read-out: %remaining protein XIAP, MM.1S cells, 16 h treatment at 0.1 μM, normalized to loading control and DMSO
[10] = MM.1S cells, western blot, 0.1 or 1 μM

Row | SMILES | remaining activity at 0.1 µM (VHL30; read-out: %remaining protein VHL30) | XIAP degradation in VHL+/+ and VHL–/– HG3 cells (in words) (XIAP [1]) | remaining activity at 0.1 µM (cIAP2; read-out: %remaining protein cIAP2) | remaining activity at 0.1 µM (cIAP1 [2]; read-out: %remaining protein cIAP1) | cIAP1 degradation in VHL+/+ and VHL–/– HG3 cells (in words) (cIAP1 [3]) | remaining activity at 0.1 µM (XIAP [4]; read-out: %remaining protein XIAP) | remaining activity at 0.1 µM (VHL30; [6]) | VHL30 degradation (in words) (VHL30) | IAP degradation profile (in words) [5] | remaining activity at 0.1 µM (cIAP2; [7]) | remaining activity at 0.1 µM (cIAP1 [2]; [8]) | remaining VHL19 (VHL19; 1 μM) | remaining activity at 0.1 µM (XIAP [4]; [9]) | chromatographic logD (physchem) | cIAP2 degradation (in words) (cIAP2; [10]) | cIAP1 degradation (in words) (cIAP1 [2]; [10]) | XIAP degradation (in words) (XIAP [4]; [10]) | VHL19 degradation (in words) (VHL19; western blot)
1 | CN[C@@H](C)C(=O)N[C@H](C(=O)N1C[C@@H](Oc2cccc(OCCCCCCOCCCCCCOCC(=O)N[C@H](C(=O)N3C[C@H](O)C[C@H]3C(=O)NCc3ccc(-c4scnc4C)cc3)C(C)(C)C)c2)C[C@H]1C(=O)N[C@@H]1CCCc2ccccc21)C1CCCCC1 [PROTAC 6, (2S,4S)-1-((S)-2-Cyclohexyl-2-((S)-2-(methylamino)propanamido)acetyl)-4-(3-((6-((6-(2-(((S)-1-((2S,4R)-4-hydroxy-2-((4-(4-methylthiazol-5-yl)benzyl)carbamoyl)pyrrolidin-1-yl)-3,3-dimethyl-1-oxobutan-2-yl)amino)-2-oxoethoxy)hexyl)oxy)hexyl)oxy)phenoxy)-N-((R)-1,2,3,4-tetrahydronaphthalen-1-yl)pyrrolidine-2-carboxamide] | 78% | occurred only in HG3 wild-type cells | 29% | 2% | cIAP1 autodegradation was observed | 2% | – | – | – | – | – | – | – | – | – | – | – | –
2 | CN[C@@H](C)C(=O)N[C@H](C(=O)N1C[C@@H](Oc2cccc(OCCCCC(=O)N[C@H](C(=O)N3C[C@H](O)C[C@H]3C(=O)NCc3ccc(-c4scnc4C)cc3)C(C)(C)C)c2)C[C@H]1C(=O)N[C@@H]1CCCc2ccccc21)C1CCCCC1 [PROTAC 1, (2S,4S)-1-((S)-2-Cyclohexyl-2-((S)-2-(methylamino)propanamido)acetyl)-4-(3-((5-(((S)-1-((2S,4R)-4-hydroxy-2-((4-(4-methylthiazol-5-yl)benzyl)carbamoyl)pyrrolidin-1-yl)-3,3-dimethyl-1-oxobutan-2-yl)amino)-5-oxopentyl)oxy)phenoxy)-N-((R)-1,2,3,4-tetrahydronaphthalen-1-yl)pyrrolidine-2-carboxamide] | – | – | – | – | – | – | 36% | strong and dose-dependent VHL30 degradation | pan-IAP degrader | 33% | 7% | 42% | 5% | – | – | – | – | –
3 | CN[C@H](C)C(=O)N[C@H](C(=O)N1CCC[C@@H]1C(=O)N[C@@H](C(=O)NCCCCCCNC(=O)[C@H](NC(=O)[C@H]1CCCN1C(=O)[C@@H](NC(=O)[C@@H](C)NC)C1CCCCC1)C(c1ccccc1)c1ccccc1)C(c1ccccc1)c1ccccc1)C1CCCCC1 [BV6, reference compound] (I: H-[dNMeA][Chg][dP][dDip] / II: H-[dNMeA][Chg][dP][dDip]; linker I:C-II:C via Hexamethylenediamine) | – | – | – | – | – | – | – | – | potent cIAP autodegradation | – | – | – | – | 3.4 | substantial degradation | substantial degradation | failed to degrade XIAP | –
4 | CN[C@@H](C)C(=O)N[C@H](C(=O)N1C[C@@H](Oc2cccc(OCCOCCOCC(=O)N[C@H](C(=O)N3C[C@H](O)C[C@H]3C(=O)NCc3ccc(-c4scnc4C)cc3)C(C)(C)C)c2)C[C@H]1C(=O)N[C@@H]1CCCc2ccccc21)C1CCCCC1 [PROTAC 4, (2S,4S)-1-((S)-2-Cyclohexyl-2-((S)-2-(methylamino)propanamido)acetyl)-4-(3-(2-(2-(2-(((S)-1-((2S,4R)-4-hydroxy-2-((4-(4-methylthiazol-5-yl)benzyl)carbamoyl)pyrrolidin-1-yl)-3,3-dimethyl-1-oxobutan-2-yl)amino)-2-oxoethoxy)ethoxy)ethoxy)phenoxy)-N-((R)-1,2,3,4-tetrahydronaphthalen-1-yl)pyrrolidine-2-carboxamide] | – | occurred only in HG3 wild-type cells | – | – | cIAP1 autodegradation was observed | – | 44% | – | – | 40% | 4% | – | 7% | – | – | – | – | –
5 | CN[C@@H](C)C(=O)N[C@H](C(=O)N1C[C@@H](Oc2cccc(OCCCCCCCC(=O)N[C@H](C(=O)N3C[C@H](O)C[C@H]3C(=O)NCc3ccc(-c4scnc4C)cc3)C(C)(C)C)c2)C[C@H]1C(=O)N[C@@H]1CCCc2ccccc21)C1CCCCC1 [PROTAC 2, (2S,4S)-1-((S)-2-Cyclohexyl-2-((S)-2-(methylamino)propanamido)acetyl)-4-(3-((8-(((S)-1-((2S,4R)-4-hydroxy-2-((4-(4-methylthiazol-5-yl)benzyl)carbamoyl)pyrrolidin-1-yl)-3,3-dimethyl-1-oxobutan-2-yl)amino)-8-oxooctyl)oxy)phenoxy)-N-((R)-1,2,3,4-tetrahydronaphthalen-1-yl)pyrrolidine-2-carboxamide] | – | occurred only in HG3 wild-type cells | – | – | cIAP1 autodegradation was observed | – | 28% | strong and dose-dependent VHL30 degradation | – | 23% | 4% | – | 5% | – | – | – | – | slight hook effect for VHL19 degradation
